{"source": "PubChem BioAssay AID1259407", "about": "(Chemical Carcinogenesis Research Information System (CCRIS), 2018)", "system": "CCRIS mutagenicity, Ames/micronucleus/aberration tests", "test": "CCRIS mutagenicity studies", "key": {"[1]": {"conditions": "Test System: MOUSE LYMPHOMA, Strain/Indicator: L5178Y (TK+/TK-), Metabolic Activation: NONE, Method: SUSPENSION/PLATE"}, "[2]": {"conditions": "Test System: AMES SALMONELLA TYPHIMURIUM, Strain/Indicator: TA98, Metabolic Activation: NONE, Method: STANDARD PLATE"}, "[3]": {"conditions": "Test System: AMES SALMONELLA TYPHIMURIUM, Strain/Indicator: TA100, Metabolic Activation: NONE, Method: STANDARD PLATE"}}, "note": "The source made the active and inactive calls. No rule for the calls is given here.", "data": [{"smiles": "Cc1[nH]c(=O)c(C#N)cc1-c1ccncc1", "values": [{"measurement": "mutagenic call", "setting": "Test System: AMES SALMONELLA TYPHIMURIUM, Strain/Indicator: TA97, Metabolic Activation: NONE", "value": "inactive; negative"}, {"measurement": "mutagenic call", "setting": "Test System: AMES SALMONELLA TYPHIMURIUM, Strain/Indicator: TA97, Metabolic Activation: S-9", "value": "inactive; negative"}, {"measurement": "mutagenic call", "setting": "Test System: AMES SALMONELLA TYPHIMURIUM, Strain/Indicator: TA98, Metabolic Activation: NONE", "value": "inactive; negative"}, {"measurement": "mutagenic call", "setting": "Test System: AMES SALMONELLA TYPHIMURIUM, Strain/Indicator: TA98, Metabolic Activation: NONE, Method: PREINCUBATION", "value": "inactive; negative"}, {"measurement": "mutagenic call", "setting": "Test System: AMES SALMONELLA TYPHIMURIUM, Strain/Indicator: TA98, Metabolic Activation: RAT, LIVER, S-9, PHENOBARBITAL AND 5,6-BENZOFLAVONE, Method: PREINCUBATION", "value": "inactive; negative"}, {"measurement": "mutagenic call", "setting": "Test System: AMES SALMONELLA TYPHIMURIUM, Strain/Indicator: TA98, Metabolic Activation: S-9", "value": "inactive; negative"}, {"measurement": "mutagenic call", "setting": "Test System: AMES SALMONELLA TYPHIMURIUM, Strain/Indicator: TA100, Metabolic Activation: NONE, Method: PREINCUBATION", "value": "inactive; negative"}, {"measurement": "mutagenic call", "setting": "Test System: AMES SALMONELLA TYPHIMURIUM, Strain/Indicator: TA100, Metabolic Activation: RAT, LIVER, S-9, PHENOBARBITAL AND 5,6-BENZOFLAVONE, Method: PREINCUBATION", "value": "inactive; negative"}, {"measurement": "mutagenic call", "setting": "Test System: AMES SALMONELLA TYPHIMURIUM, Strain/Indicator: TA100, Metabolic Activation: S-9", "value": "inactive; negative"}, {"measurement": "mutagenic call", "setting": "Test System: AMES SALMONELLA TYPHIMURIUM, Strain/Indicator: TA102, Metabolic Activation: NONE", "value": "inactive; negative"}, {"measurement": "mutagenic call", "setting": "Test System: AMES SALMONELLA TYPHIMURIUM, Strain/Indicator: TA102, Metabolic Activation: S-9", "value": "inactive; negative"}, {"measurement": "mutagenic call", "setting": "Test System: AMES SALMONELLA TYPHIMURIUM, Strain/Indicator: TA1535, Metabolic Activation: NONE, Method: PREINCUBATION", "value": "inactive; negative"}, {"measurement": "mutagenic call", "setting": "Test System: AMES SALMONELLA TYPHIMURIUM, Strain/Indicator: TA1535, Metabolic Activation: RAT, LIVER, S-9, PHENOBARBITAL AND 5,6-BENZOFLAVONE, Method: PREINCUBATION", "value": "inactive; negative"}, {"measurement": "mutagenic call", "setting": "Test System: AMES SALMONELLA TYPHIMURIUM, Strain/Indicator: TA1537, Metabolic Activation: NONE, Method: PREINCUBATION", "value": "inactive; negative"}, {"measurement": "mutagenic call", "setting": "Test System: AMES SALMONELLA TYPHIMURIUM, Strain/Indicator: TA1537, Metabolic Activation: RAT, LIVER, S-9, PHENOBARBITAL AND 5,6-BENZOFLAVONE, Method: PREINCUBATION", "value": "inactive; negative"}, {"measurement": "mutagenic call", "setting": "Test System: E. COLI, Strain/Indicator: WP2 UVRA, Metabolic Activation: NONE, Method: PREINCUBATION", "value": "inactive; negative"}, {"measurement": "mutagenic call", "setting": "Test System: E. COLI, Strain/Indicator: WP2 UVRA, Metabolic Activation: RAT, LIVER, S-9, PHENOBARBITAL AND 5,6-BENZOFLAVONE, Method: PREINCUBATION", "value": "inactive; negative"}, {"measurement": "mutagenic call", "setting": "[1]", "value": "inactive; negative"}, {"measurement": "mutagenic call", "setting": "Test System: MOUSE LYMPHOMA, Strain/Indicator: L5178Y (TK+/TK-), Metabolic Activation: RAT, LIVER, S-9, PHENOBARBITAL AND 5,6-BENZOFLAVONE, Method: SUSPENSION/PLATE", "value": "inactive; negative"}]}, {"smiles": "CCCCC/C=C/C=C/C=O", "values": [{"measurement": "mutagenic call", "setting": "Test System: AMES SALMONELLA TYPHIMURIUM, Strain/Indicator: TA98, Metabolic Activation: HAMSTER, LIVER, S-9, AROCLOR 1254, Method: STANDARD PLATE", "value": "inactive; negative"}, {"measurement": "mutagenic call", "setting": "[2]", "value": "inactive; negative"}, {"measurement": "mutagenic call", "setting": "Test System: AMES SALMONELLA TYPHIMURIUM, Strain/Indicator: TA98, Metabolic Activation: RAT, LIVER, S-9, AROCLOR 1254, Method: STANDARD PLATE", "value": "inactive; negative"}, {"measurement": "mutagenic call", "setting": "Test System: AMES SALMONELLA TYPHIMURIUM, Strain/Indicator: TA100, Metabolic Activation: HAMSTER, LIVER, S-9, AROCLOR 1254, Method: STANDARD PLATE", "value": "inactive; negative"}, {"measurement": "mutagenic call", "setting": "[3]", "value": "inactive; negative"}, {"measurement": "mutagenic call", "setting": "Test System: AMES SALMONELLA TYPHIMURIUM, Strain/Indicator: TA100, Metabolic Activation: RAT, LIVER, S-9, AROCLOR 1254, Method: STANDARD PLATE", "value": "inactive; negative"}, {"measurement": "mutagenic call", "setting": "Test System: AMES SALMONELLA TYPHIMURIUM, Strain/Indicator: TA1535, Metabolic Activation: HAMSTER, LIVER, S-9, AROCLOR 1254, Method: STANDARD PLATE", "value": "inactive; negative"}, {"measurement": "mutagenic call", "setting": "Test System: AMES SALMONELLA TYPHIMURIUM, Strain/Indicator: TA1535, Metabolic Activation: NONE, Method: STANDARD PLATE", "value": "inactive; negative"}, {"measurement": "mutagenic call", "setting": "Test System: AMES SALMONELLA TYPHIMURIUM, Strain/Indicator: TA1535, Metabolic Activation: RAT, LIVER, S-9, AROCLOR 1254, Method: STANDARD PLATE", "value": "inactive; negative"}, {"measurement": "mutagenic call", "setting": "Test System: AMES SALMONELLA TYPHIMURIUM, Strain/Indicator: TA1537, Metabolic Activation: HAMSTER, LIVER, S-9, AROCLOR 1254, Method: STANDARD PLATE", "value": "inactive; negative"}, {"measurement": "mutagenic call", "setting": "Test System: AMES SALMONELLA TYPHIMURIUM, Strain/Indicator: TA1537, Metabolic Activation: NONE, Method: STANDARD PLATE", "value": "inactive; negative"}, {"measurement": "mutagenic call", "setting": "Test System: AMES SALMONELLA TYPHIMURIUM, Strain/Indicator: TA1537, Metabolic Activation: RAT, LIVER, S-9, AROCLOR 1254, Method: STANDARD PLATE", "value": "inactive; negative"}, {"measurement": "mutagenic call", "setting": "Test System: AMES SALMONELLA TYPHIMURIUM, Strain/Indicator: TA1538, Metabolic Activation: HAMSTER, LIVER, S-9, AROCLOR 1254, Method: STANDARD PLATE", "value": "inactive; negative"}, {"measurement": "mutagenic call", "setting": "Test System: AMES SALMONELLA TYPHIMURIUM, Strain/Indicator: TA1538, Metabolic Activation: NONE, Method: STANDARD PLATE", "value": "inactive; negative"}, {"measurement": "mutagenic call", "setting": "Test System: AMES SALMONELLA TYPHIMURIUM, Strain/Indicator: TA1538, Metabolic Activation: RAT, LIVER, S-9, AROCLOR 1254, Method: STANDARD PLATE", "value": "inactive; negative"}, {"measurement": "mutagenic call", "setting": "[1]", "value": "inactive; negative. reevaluation of results: negative"}, {"measurement": "mutagenic call", "setting": "Test System: MOUSE LYMPHOMA, Strain/Indicator: L5178Y (TK+/TK-), Metabolic Activation: RAT, LIVER, S-9, AROCLOR 1254, Method: SUSPENSION/PLATE", "value": "inactive; negative. reevaluation of results: negative"}]}, {"smiles": "O=[N+]([O-])c1cc2[nH]c3ccc4ccccc4c3c2c2cc(O)ccc12", "values": [{"measurement": "mutagenic call", "setting": "[2]", "value": "inactive; negative"}, {"measurement": "mutagenic call", "setting": "Test System: AMES SALMONELLA TYPHIMURIUM, Strain/Indicator: TA98, Metabolic Activation: RAT, LIVER, S-9, 3-METHYLCHOLANTHRENE, Method: STANDARD PLATE", "value": "active; positive"}, {"measurement": "mutagenic call", "setting": "[3]", "value": "active; positive"}, {"measurement": "mutagenic call", "setting": "Test System: AMES SALMONELLA TYPHIMURIUM, Strain/Indicator: TA100, Metabolic Activation: RAT, LIVER, S-9, 3-METHYLCHOLANTHRENE, Method: STANDARD PLATE", "value": "active; positive"}]}]}
